The term IC50 denotes the concentration that gives 50% inhibition. A higher IC50 goes with lower potency.

The results in this text go back to patent publication US7501513B2, “Immunosuppressive effects of pteridine derivatives” (4 AZA Bioscience NV, priority 2003, dated 2009).

Molecules are shown by their SMILES.

One experiment has as its system human TNF-α. Kind of experiment: TNF-α assay: suppression of TNF-α production by LPS-stimulated PBMC (ELISA). The note with it: Homo sapiens, PBMC; Table 2; LPS 1 μg/ml, 72 hours. The format is cell-based. Here is the method:
Peripheral blood mononuclear cells (herein referred as PBMC), in response to stimulation by lipopolysaccharide (LPS), a gram-negative bacterial endotoxin, produce various […], in particular human TNF-α and IL-1 β. Inhibition of the activation of PBMC can therefore be measured by the level of suppression of the production of TNF-α or IL-1 β by PBMC in response to stimulation by LPS.
(§1) Such inhibition measurement was performed as follows: PBMC were isolated from heparinized peripheral blood by density gradient centrifugation over Lymphoprep (commercially available from Nycomed, Norway). LPS was then added to the PMBC suspension in complete medium (10^6 cells/ml) at a final concentration of 1 μg/ml. The pteridine derivative to be tested was added at different concentrations (0.1 μM, 1 μM and 10 μM) and the cells were incubated at 37° C. for 72 hours in 5% CO2. The supernatants were collected, then TNF-α and/or IL-1 β concentrations were measured with respectively an anti-TNF-α antibody or an anti-IL-1 β antibody in a sandwich ELISA (Duo Set ELISA human TNFα, commercially available from R&D Systems, United Kingdom). The calorimetric reading of the ELISA was measured by a Multiskan RC plate reader (commercially available from ThermoLabsystems, Finland) at 450 nm (reference wavelength: 690 nm). Data analysis was performed with Ascent software 2.6. (also from ThermoLabsystems, Finland): a standard curve (recombinant human TNFα) was drawn and the amount (pg/ml) of each sample on the standard curve was determined.
The % suppression of human TNFα production or human IL-1 β by the pteridine derivatives of the invention (drugs) was calculated using the formula: […]
Peripheral blood mononuclear cells (herein referred as PBMC), in response to stimulation by lipopolysaccharide (hereinafter LPS), a gram-negative bacterial endotoxin, produce various […], in particular human TNF-α. Inhibition of the activation of PBMC can therefore be measured by the level of suppression of the production of TNF-α by PBMC in response to stimulation by LPS.
as §1, with “TNF-α” for “TNF-α and/or IL-1 β”, “with” for “with respectively”, “anti-TNF-α” for “anti-TNF-α antibody or an anti-IL-1 β”, “TNF-α,” for “TNFα,”, “colorimetric” for “calorimetric”
The % suppression of human TNFα production by the pteridine derivatives of the invention (drugs) was calculated using the formula: […]
In general terms: In an ELISA, binding on a coated surface is turned into a signal by an enzyme label.
`CC(C)Oc1nc(N)nc2ncc(-c3ccc(F)c(F)c3)nc12` [Example 37, 2-amino-6-(3,4-difluorophenyl)-4-isopropoxypteridine] came in with an IC50 of 6.6 µM.

Compound `CCOc1nc(N)nc2ncc(-c3ccc(OC)cc3)nc12` [Example 13, 2-amino-6-(p-methoxyphenyl)-4-ethoxy-pteridine] had an IC50 of 4.5 µM.

With `CC(C)Oc1nc(N)nc2ncc(-c3ccc(C#N)cc3)nc12` [Example 42, 2-amino-6-(p-cyanophenyl)-4-isopropoxypteridine], the IC50 is 6.3 µM.

As to `CCOc1nc(N)nc2ncc(-c3ccccc3OC)nc12` [Example 14, 2-amino-6-(o-methoxyphenyl)-4-ethoxy-pteridine], the IC50 is > 10 µM.

With `CC(C)Oc1nc(N)nc2ncc(-c3ccc(C(F)(F)F)cc3)nc12` [Example 36, 2-amino-6-(p-trifluoromethylphenyl)-4-isopropoxypteridine], the IC50 came out at 9.1 µM.

`CCOc1ccc(-c2cnc3nc(N)nc(OC(C)C)c3n2)cc1` [Example 39, 2-amino-6-(p-ethoxyphenyl)-4-isopropoxypteridine]: the IC50 is > 10 µM.

Still in this experiment, the particulars now being: Table 2; LPS 1 μg/ml, 72 hours.
In the case of `COc1ccc(-c2cnc3nc(N)nc(OC(C)C)c3n2)cc1` [Example 38], the IC50 is 6.2 µM.

With `CC(C)Oc1nc(N)nc2c1ncc[n+]2[O-]` [Example 10, 2-amino-4-isopropoxypteridine-N^8-oxide], half-maximal inhibition (IC50) was put at 4 µM.

Still in this experiment, the particulars now being: Table 4; LPS 1 μg/ml, 72 hours.
With `CCOC(=O)CCCOc1ccc(-c2cnc3nc(N)nc(N4CCOCC4)c3n2)cc1` [Example 108, 2-amino-4-morpholino-6-(4-phenoxy-butyric acid ethyl ester) pteridine], it took 0.9 µM to reach half-maximal inhibition (IC50).

As to `COc1ccc(-c2cnc3nc(N)nc(NCc4ccccc4)c3n2)cc1OC` [Example 113], the IC50 was 6.5 µM.

`CCOC(=O)COc1ccc(-c2cnc3nc(N)nc(N4CCOCC4)c3n2)cc1` [Example 109, 2-amino-4-morpholino-6-(4-phenoxy-acetic acid ethyl ester) pteridine] displayed an IC50 of 0.6 µM.

`COc1ccc(-c2cnc3nc(N)nc(N4CC=CCC4)c3n2)cc1OC` [Example 117] returned an IC50 of 0.5 µM.

`CCOC(=O)CCC(=O)Nc1cccc(-c2cnc3nc(N)nc(N4CCOCC4)c3n2)c1` [Example 94, 2-amino-4-morpholino-6-(3-ethylsuccinylaminophenyl)pteridine] returned a 50% inhibitory concentration (IC50) of 5.5 µM.
